Test results from the NIST ThermoML archive (doi:10.1021/je800616p).

Assay: mn = molality of the nth substance listed, in mol/kg
Details: 101 kPa, Liquid; for viscosity: Capillary tube (Ostwald / Ubbelohde) method; for mass density: Vibrating tube method

NC(=O)c1ccccc1O [2-hydroxybenzamide] + CO
Details	mass density [kg/m3]	viscosity [mPa·s]
293.15 K, m1 = 0.0095	792.015	0.597
293.15 K, m1 = 0.0126	792.215	0.5976
293.15 K, m1 = 0.0158	792.352	0.5981
293.15 K, m1 = 0.019	792.555	0.5987
293.15 K, m1 = 0.0221	792.688	0.5993
293.15 K, m1 = 0.0253	792.801	0.5997
293.15 K, m1 = 0.0317	792.965	0.6008
298.15 K, m1 = 0.0095	787.285	0.5471
298.15 K, m1 = 0.0126	787.479	0.5475
298.15 K, m1 = 0.0158	787.615	0.548
298.15 K, m1 = 0.019	787.819	0.5485
298.15 K, m1 = 0.0222	787.921	0.549
298.15 K, m1 = 0.0253	788.019	0.5495
298.15 K, m1 = 0.0317	788.218	0.5503
303.15 K, m1 = 0.0095	782.541	0.5003
303.15 K, m1 = 0.0127	782.725	0.5005
303.15 K, m1 = 0.0159	782.859	0.5007
303.15 K, m1 = 0.0191	783.029	0.5009
303.15 K, m1 = 0.0223	783.149	0.5012
303.15 K, m1 = 0.0255	783.261	0.5015
303.15 K, m1 = 0.0319	783.449	0.5019
308.15 K, m1 = 0.0096	777.775	0.4852
308.15 K, m1 = 0.0128	777.951	0.4853
308.15 K, m1 = 0.016	778.085	0.4855
308.15 K, m1 = 0.0192	778.255	0.4857
308.15 K, m1 = 0.0224	778.368	0.4859
308.15 K, m1 = 0.0256	778.495	0.4862
308.15 K, m1 = 0.0321	778.659	0.4866
310.15 K, m1 = 0.0097	775.881	0.4602
310.15 K, m1 = 0.0129	776.055	0.4603
310.15 K, m1 = 0.0161	776.195	0.4604
310.15 K, m1 = 0.0193	776.355	0.4607
310.15 K, m1 = 0.0218	776.449	0.4608
310.15 K, m1 = 0.0258	776.585	0.4609
310.15 K, m1 = 0.0323	776.765	0.4612
313.15 K, m1 = 0.0097	775.744	0.4502
313.15 K, m1 = 0.013	775.898	0.4503
313.15 K, m1 = 0.0162	776.045	0.4504
313.15 K, m1 = 0.0194	776.165	0.4506
313.15 K, m1 = 0.0227	776.285	0.4508
313.15 K, m1 = 0.0259	776.375	0.4509
313.15 K, m1 = 0.0325	776.558	0.4511
